Source: US7947253B2, “Perturbed membrane-binding compounds and methods of using the same” (Aposense Ltd., priority 2004, dated 2011)

Assays:
[1] = test system: Jurkat cells undergoing apoptosis induced by CD95; test: Binding of tritium-labeled compounds to cultured Jurkat cells undergoing apoptosis induced by CD95; type: cell-based, human
Experimental: Cultured Jurkat cells (human adult T cell leukemia cells) were grown in suspension in RPMI medium (Beit-Haemek, Israel), supplemented with 10% fetal calf serum (FCS), 2 mM of L-glutamide, 1 mM of sodium pyruvate, 1 mM HEPES and antibiotics (100 units/ml penicilin; 100 μg/ml streptomycin and 12.5 units/ml of nystatin). Prior to induction of apoptosis, medium was replaced with HBS buffer (10 mM HEPES; 140 mM NaCl, 1 mM CaCl). Apoptosis was then triggered by treatment with CD95 (0.1 ug/10^7 cells/ml). As a result, a marked percentage of the cells became apoptotic. Non-treated cells served as control. Both control cells and apoptotic cells were then incubated for 40 minutes at room temperature followed by 30 minutes on ice with (2 μCi/10^7 cells/0.5 ml) tritium-labeled NST 200 and NST 205.
After washing the cells twice, 1 ml of SOLVABLE™ reagent (GNE9100, Packard Biosciences) was added to the pellet. Following one hour of incubation at 60° C., the extracts were transferred into glass scintillation vials and 10 ml of scintillation liquid (Ultima gold 6013329, Packard Biosciences) was added to each vial. The radioactivity was counted after 1 hour of cooling to room temperature and dark adaptation. The radioactive values were calculated and presented in percents of total added radiolabeled NST 200 and NST 205

[2] = test system: colon carcinoma tumors; test: Autoradiography of response to chemotherapy in a mouse model of colon carcinoma; type: in vivo, Balb/c male mice; conditions: 4 h after i.v. injection
Experimental: Colon carcinoma model was established in the abdomen of Balb/c male mice. At day 12-14 when tumor size was […] in diameter, the uptake of NST200 into tumors was measured following treatment of colon carcinoma tumors with i.v. injection of two doses of doxorubicin (20 mg/kg, 72 hours apart). Fourty-eight hours after the chemotherapy, both the control non-treated and the chemotherapy-treated animals were injected intravenously with and radio-labeled NST200 (80 μCi/animal) Four hours later, the animals were sacrificed. 10 μm frozen sections were prepared, air-dried and exposed to a tritium sensitive film. The film was exposed for a duration of 7 weeks, developed and analyzed by densitometny measurement. Measurement of ^3H-DDC densities in optical density/mm^2, […] was assessed by TINA software. Signals were translated according to a Microscale autoradiography standards and expressed in nCi/mg units.

[3] = test system: Murine colon carcinoma cells (CT-26) tumors; test: Uptake into colon carcinoma tumors: effect of chemotherapy (scintillation counting); type: in vivo, Balb/C mice
Experimental: Murine colon carcinoma cells (CT-26) (ATCC CRL-2638) were maintained in RPMI (Gibco, UK), 2 mM of L-glutamine; 100 units/ml of penicillin; 100 μg/ml of streptomycine; 12.5 units/ml nystatin; and 10% heated inactivation FCS. Studies were carried out in adult male Balb/C mice 8-10 weeks old (weighting 20-25gr).
Cells were trypsinized, washed twice with HBS (140 mM NaCl; […], PH 7.4) and than centrifuged (5 min, 1000 rpm, 4° C.) and concentrated into 2×10^6 cells/ml in a mixture of (2%) methyl cellulose and saline (1:3). A volume of 0.2 ml of the above solution (containing 4×10^5 cells/dose) was injected subcutaneously into the mice abdomen in both sides while mice were anaesthetized. Anaesthetic stock solution was prepared from 0.85 ml Ketamine (100 mg/ml)+0.15 ml Xilazine (2%) diluted 1:10. 0.1 ml of diluted solution was injected (i.p.) per 10 gr body weight.
Mice were examined daily for palpable tumor formation. 7-10 days after tumor injection small tumors were visible.
Uptake of ^3H-NST200 into tumors was measured following treatment of colon carcinoma tumors with i.v. injection of two doses of doxorubicin (20 mg/kg, 72 hours apart). 48 hours after the second dose, the mice were intravenously injected with ^3H-NST200 (10 μCi/animal). Four hours later, tumors were collected, weighed and the tissue was processed: tumor lysis was performed using SOLVABLE™ reagent (GNE9100, Packard Bioscience) in a ratio of one ml reagent per 150 mg of tumor tissue at 60° C. in 20 ml scintillation glass vials. Following 2-4 hours, one ml from each tissue extract was transferred to a glass scintillation vial. To reduce color quenching problems, samples were treated with 0.4 ml of 30% H2O2 in the presence of 0.066M EDTA. […] The vials were incubated for 1 hr at RT, and than analyzed in a β-counter (TRI-CARB 2100TR, liquid scintillation analyzer, Packard Bioscience). All samples were measured in triplicates Values of percents of injected dose (% ID/g tissue) were calculated for each sample.

[4] = test system: colon carcinoma tumor vs other organs; test: Biodistribution in colon carcinoma tumor bearing mice; type: in vivo, Balb/c male mice; conditions: doxorubicin treated mice, 4 h after injection, table of FIG. 7
Experimental: Colon carcinoma model was established in the abdomen of Balb/c male mice, as described in previous example, and ^3H-NST200 (10 μCi) was injected to animals treated with doxorubicin. Four hours later, the animals were sacrificed and various organs/tissues were collected and processed, to determine the accumulation of ^3H-NST200 within them. The uptake in each organ was expressed as % of the injected dose (ID), and the ratio between the uptake in the tumor and other organs was calculated, as shown in the table attached hereto as FIG. 7.

[5] = test system: colon carcinoma tumors; test: Uptake into treated colon carcinoma tumors compared with tumor volume; type: in vivo, Balb/c male mice
Experimental: Colon carcinoma model was established in the abdomen of Balb/c male mice, as described in Example No. 10. At day 12-14 when tumor size was 6-8 mm in diameter, mice were injected intravenously with doxorubicin. A total of 2 doses of doxorubicin were given, separated by 3 days interval (each dose was 20 mg/Kg).
Two days after the second doxorubicin injection, mice were injected i.v. with 10 μCi of ^3H-NST200 in a volume of 0.2 ml saline. Four hours following ^3H-NST200 injection, mice were sacrificed by pental overdosing. Tumors were collected in ependorff tubes, weighted and frozen in −20° C.
Tumor lysis was performed using SOLVABLE™ reagent (GNE9100, Packard Bioscience) in a ratio of 1 ml reagent per 150 mg of tumor tissue at 60° C. in 20 ml scintillation glass vials. Following 2-4 hours, 1 ml from each tissue extract was transferred to a glass scintillation vial. To reduce color quenching problems, samples were treated with 0.4 ml of 30% H2O2 in the presence of 0.066M EDTA. […] The vials were incubated for 1 hr at RT, and than analyzed in a β-counter (TRI-CARB 2100TR, liquid scintillation analyzer, Packard Bioscience). Values of percents of injected dose (% ID/g tissue) were calculated for each sample. […] The uptake values of NST200 after each dose were correlated with tumor volume, which were calculated by the formula (assuming spherical tumors) V=πD^3/6, where D is the average tumor diameter.

[6] = test system: brain regions of apoptotic/necrotic cell death; test: Autoradiography of apoptotic damage following middle cerebral artery occlusion in mice; type: in vivo, Balb/C mice
Experimental: p-MCA was induced through a subtemporal approach in Balb/C mice with an outcome of a pronounced ischemic damage. Twenty-two hours after p-MCA, the animal's neurological score was assessed (from 0-no clinical signs to 3-hemiplegia, circling and catatonia) and radio-labeled NST200 (80 μCi/animal) was intravenously injected for successive 2 h before sacrificing the animals. 10 μm frozen sections were prepared, air-dried and exposed to a tritium sensitive film (Hyperfilm-3h, RPN535B Amersharn-Pharmacia, Eu). The film was exposed for a duration of 7 weeks, developed (GBX Developer & Fixer, Kodak, USA) and analyzed by densitometry measurement. Measurement of ^3H-DDC densities in optical density/mm^2, in the ischemic core vs. the contralateral hemisphere signal was assessed by TINA software. Signals were translated according to a Microscale autoradiography standards (RPN510 Amersham-Pharmacia, Eu) and expressed in nCi/mg units.

[7] = test system: brain and spinal cord white matter in EAE; test: Autoradiography imaging of experimental autoimmune encephalomyelitis (EAE); type: in vivo, C3H.SW/C57/bl female mice; conditions: FIG. 12
[8] = test system: kidney regions of apoptotic/necrotic cell death; test: Autoradiography of rat renal ischemia-reperfusion; type: in vivo, rats
[9] = test system: injured regions within the outer medulla of the kidney; test: Autoradiography in a rat model of radiocontrast-induced acute distal tubular necrosis; type: in vivo, rats; conditions: 24 h after insult, 1 h after i.v. injection, FIG. 11
Experimental: Nephropathy with selective medullary hypoxic tubular damage was induced by the combined administration of indomethacin (Sigma Chemical Co.), 10 mg/kg, i.v., N^ωnitro-L-arginine methyl ester (L-NAME, Sigma Chemical Co.), 10 mg/kg, i.v., and radiocontrast agent sodium-iothalamate 80% (Angio-Conray, Mallinckrodt Inc), 6 mL/kg, i.a. Additional rats injected with vehicles served as control. Twenty-four hours after insult, animals, both control and experimental were intravenously injected with 100 μCi of ^3H-NST205 and one hour later kidneys were excised and frozen in liquid nitrogen.

[10] = test system: HeLa S3 cells undergoing apoptosis; test: Fluorescent microscopy of binding to cultured HeLa cells undergoing apoptosis; type: cell-based; conditions: aged HeLa culture, fluorescence, FIG. 3
Experimental: HeLa S3 cells (ATCC CCL-2.2) were grown in Dulbecco's modified Eagle's medium (DMEM), supplemented with 2 mM of L-glutamine; 100 units/ml of penicillin; 100 μg/ml of streptomycin; 12.5 units/ml of nystatin and 10% of fetal calf serum (FCS). Cells were seeded at a density of 5×10^6 cells/plate, on a […] culture plates, in a volume of 10 ml, and were allowed to age by incubating the culture for 96 hours without exchange of the growth-medium. As a result, a marked percentage of the cells became apoptotic. Cells were harvested using a cell scraper, separated to single cells by passage through a syringe with a 18 G needle, and re-suspended at a density of 10^6 cells/ml in PBS buffer at pH=7.4. As was shown before NST 203 including a dansylamide group which enables the visualization of the fluorescence of a single cell.

## CCCCC(C)(C(=O)O)C(=O)O [NST200]
[1]; tritium-labeled compound, CD95-induced apoptosis, FIG. 2A
  uptake in apoptotic cells compared to the non-apoptotic cells: over 8 fold
[2]; 48 h after two doses of doxorubicin, FIGS. 5B and C
  uptake in tumors upon induction of cell death via chemotherapy (autoradiography): dramatic increase
[2]; control non-treated mice, FIG. 5A
  uptake in non-treated tumors (autoradiography): no uptake
[3]; doxorubicin treated tumors, 48 hr after second dose, 4 h after i.v. injection
  mean value of uptake in the treated group: 1.28 % ID/gr
[3]; doxorubicin treated vs non treated tumors
  mean uptake of treated group relative to mean value of the control group: 12.1 fold
[3]; some chemotherapy-treated tumors
  increase in uptake in some treated tumors as compared with the control group: 40-50 fold
[4]
  ratio of uptake in the tumor vs. all organs: > 1
[5]; two days after second dose, 4 h after i.v. injection, vs control non-treated tumors
  increase in uptake in tumors after 2 doses of doxorubicin: 18.5 fold
[6]; 22 h after p-MCA, i.v., 2 h, FIG. 9
  targeting of injury within regions of apoptotic/necrotic cell death (autoradiography): specificity of targeting the injury
[6]; tritium-labeled compound
  uptake in damaged brain hemisphere compared to the contralateral non-damaged hemisphere: markedly higher levels of uptake
[7]; coronal brain sections, 1 h after i.v. injection
  radio-ligand accumulation in brain vs control non-immunized mouse: excess of radio-ligand accumulation in the whole brain
[7]; longitudinal spinal cord section
  accumulation at the spinal cord level vs control untreated animal: impressive accumulation

## CCCCC(CCCF)(C(=O)O)C(=O)O [NST205, 2-butyl-2(3-fluoropropyl)-malonic acid]
[1]; CD95, plus ZVAD, FIG. 2B
  effect of adding caspase inhibitor ZVAD on the higher uptake in apoptotic cells: completely reversed
[1]; tritium-labeled compound, CD95-induced apoptosis, FIG. 2B
  uptake in apoptotic cells in comparison to the non apoptotic cells: higher uptake
[8]; 45 minutes ischemia, 24 hours reperfusion, 1 h after i.v. injection, FIG. 10
  targeting of injury within regions of apoptotic/necrotic cell death in ischemic kidney (autoradiography): specificity of targeting the injury
[8]; contralateral untreated kidney of same animal
  uptake into contralateral kidney: no ^3H-NST205 uptake into contralateral kidney
[9]
  homing in kidney (autoradiography): primarily restricted to injured regions within the outer medulla

## CCCCNS(=O)(=O)c1cccc2c(N(C)C)cccc12 [BDA, n-butyl-dansylamide]
[10]
  selectivity of binding to apoptotic vs non-apoptotic cells: did not manifest this selectivity

## COc1cccc2c1C(=O)c1c(O)c3c(c(O)c1C2=O)C[C@@](O)(C(=O)CO)C[C@@H]3O[C@H]1C[C@H](N)[C@H](O)[C@H](C)O1 [doxorubicin, reference compound]
[5]; 2 doses of 20 mg/Kg i.v., 5 days, controls collected 5 days earlier, non-significant
  increase in tumor volume as compared to control non-treated tumors: 50%
